Reference: PMC12845261, “Design, Synthesis, and Biological Evaluation of N-Acyl-Hydrazone-Linked Quinazolinone Derivatives with Antioxidant, Antimicrobial, and Anticancer Potential” (Pharmaceuticals, 2025)

How the values were obtained:
[1] = Total antioxidant capacity (TAC), DPPH method; conditions: 30 min, 517 nm, compound stock 1 mg/mL in methanol, reference ascorbic acid TAC = 100%
Description: The total antioxidant capacity (TAC) was evaluated using diphenyl-1-picrylhydrazyl free radical (DPPH) method. The TAC value was determined in relation to the antioxidant capacity of the reference (ascorbic acid, TAC = 100%). […] The maximum value was recorded for 1c (~45%), followed by 1f and 1a (~43%), while the minimum for 1e (~19%).
In this study, the TAC values were obtained using the most-known DPPH method, in which the intense violet colour of the free radical solution is decreasing. Stock solutions of compounds 1a–1f and 2 were prepared in absolute methanol at a concentration of 1 mg/mL. A stock solution of 2,2-diphenyl-1-picrylhydrazyl free radical was obtained in the same solvent, at a concentration of 2 × 10^−4 M. To 1.8 mL of DPPH solution was added 0.2 mL of each solution of the compounds 1a–1f and 2 and the mixture was left in the dark for 30 min, followed by measurements of the absorbance at 517 nm. The following equation was used to calculate TAC: TAC%=Abs0 min−Abs30 min/Abs0min·100 where Abs0 min refers to the initial absorbance of the DPPH free radical solution, and Abs 30 min refers to the absorbance of the solution of DPPH and the added compound after 30 min. Ascorbic acid was used as a reference.

C. albicans ATCC 10231 [2] = assay: Microbicidal activity (MMC); assay type: cell-based; conditions: DMSO control 5
Description: (§1) For the evaluation of antimicrobial activity, the following reference strains were used: S. aureus ATCC 25923, E. faecalis ATCC 29212, E. coli ATCC 25922, P. aeruginosa ATCC 27853 and C. albicans ATCC 10231. To determine the MMCs, 5 μL of culture was taken from each well and distributed on solid medium. The plates were incubated for 20–24 h at 37 °C. The lowest concentration at which no microbial growth was observed was considered MMC.

E. faecalis ATCC 29212 [3] = assay: Microbicidal activity (MMC); assay type: cell-based; conditions: DMSO control >5
Description: as §1

P. aeruginosa ATCC 27853 [4] = assay: Microbicidal activity (MMC); assay type: cell-based; conditions: DMSO control 2.5
Description: as §1

S. aureus ATCC 25923 [5] = assay: Microbicidal activity (MMC); assay type: cell-based; conditions: DMSO control 5
Description: as §1

C. albicans ATCC 10231 [6] = assay: Microbial adhesion, crystal violet (MICMA); assay type: cell-based; conditions: DMSO control 1.25
Description: (§2) For the evaluation of antimicrobial activity, the following reference strains were used: S. aureus ATCC 25923, E. faecalis ATCC 29212, E. coli ATCC 25922, P. aeruginosa ATCC 27853 and C. albicans ATCC 10231.
(§3) Following quantitative analysis of antimicrobial activity, microbial adhesion was evaluated after methanol fixation and violet crystal staining (0.1%). The absorbance of the adhered biomass colored with violet crystal and resuspended in 33% acetic acid was measured at 490 nm.

E. coli ATCC 25922 = assay: Microbial adhesion, crystal violet (MICMA); assay type: cell-based; conditions: DMSO control 5
Description: as §2, §3

E. faecalis ATCC 29212 [7] = assay: Microbial adhesion, crystal violet (MICMA); assay type: cell-based; conditions: DMSO control 2.5
Description: as §2, §3

P. aeruginosa ATCC 27853 [8] = assay: Microbial adhesion, crystal violet (MICMA); assay type: cell-based; conditions: DMSO control 1.25
Description: as §2, §3

S. aureus ATCC 25923 [9] = assay: Microbial adhesion, crystal violet (MICMA); assay type: cell-based; conditions: DMSO control 5
Description: as §2, §3

[10] = tested on: A431 (human epidermoid carcinoma); assay: Cytotoxicity, MTT assay; assay type: cell-based; conditions: 3.125 to 50 µM, 24 h
Description: (§4) For the cytotoxicity screening of the N-acyl-hydrazone derivatives, three cell lines were employed: HT-29 (human colorectal adenocarcinoma), A431 (human epidermoid carcinoma), and VERO (non-tumoral African green monkey kidney epithelial cells). All cell lines were obtained from the American Type Culture Collection (ATCC, Manassas, VA, USA), and maintained in appropriate culture media as follows: HT-29 and A431 cells were cultured in Dulbecco’s Modified Eagle Medium (DMEM), while VERO cells were cultured in Minimum Essential Medium (MEM). Both culture media were supplemented with 10% fetal bovine serum (FBS) and 1% penicillin-streptomycin mix, to formulate the complete culture medium. All cell lines were incubated at 37 °C in a humidified atmosphere containing 5% CO2. […] For the cytotoxicity screening, cells were seeded into sterile 96-well plates at an initial density of 1 × 10^4 cells/well and allowed to adhere for 24 h. Subsequently, cells were treated with increasing concentrations (3.125 to 50 µM) of compounds 1a–1f and 2 for 24 h. In parallel, 5-fluorouracil (5-FU, Sigma Aldrich, St. Louis, MO, USA) was included as a reference drug and tested over the same concentration range under identical experimental conditions. […] For the experimental control, culture medium was refreshed at the time of treatment application. […] Louis, MO, USA). Briefly, the culture media were discarded from each well and replaced with a fresh solution of MTT (1 mg/mL). Plates were incubated for 4 h at 37 °C, and the resulting formazan crystals were solubilized with isopropanol. The absorbance was measured at 550 nm using the FlexStation III multimodal reader (Molecular Devices, San Jose, CA, USA). All experiments were performed in triplicate and repeated in three independent assays. Cell viability was calculated as a percentage relative to the untreated control using the formula Cell Viability (%) = (Abs treated/Abs control) × 100. Data were processed using GraphPad Prism 6.0 and presented as mean ± standard deviation (SD). Statistical analysis was performed using one-way analysis of variance (ANOVA) followed by Dunnett’s post hoc test for comparison with the untreated control group.

[11] = tested on: HT-29 (human colorectal adenocarcinoma); assay: Cytotoxicity, MTT assay; assay type: cell-based; conditions: 3.125 to 50 µM, 24 h
Description: as §4

[12] = Qualitative solubility in solvents; assay type: physicochemical
Description: The 2–5 mL reaction vials were loaded with a magnetic stirrer, 1 mmol of each reactant, acetohydrazide 2 and benzaldehydes, 4–4.5 mL of anhydrous ethanol and 2 drops of glacial acetic acid. Reaction conditions included 5 min of pre-stirring, followed by 40 min of irradiation at 100 °C, with the absorbance level set to “high”. The vials were left overnight in a refrigerator. The precipitates formed were filtered under vacuum, washed with cold ethanol and dried at room temperature. Thin-layer chromatography was performed to analyze and monitor the reaction. The compounds were confirmed by spectroscopic methods (FT-IR, ^1H-NMR and ^13C-NMR spectroscopy and mass spectrometry) and characterized by melting points, solubility and retention factors (Rf).

COc1cc(/C=N/NC(=O)Cn2c(C)nc3ccccc3c2=O)cc([N+](=O)[O-])c1O [Compound 1f, N′-[(E)-(4-hydroxy-3-methoxy-5-nitrophenyl)methylidene]-2-(2-methyl-4-oxoquinazolin-3(4H)-yl)acetohydrazide]
TAC (%) [1]: 43.4% | MMC (C. albicans ATCC 10231 [2]): 5 mg/mL | MMC (E. faecalis ATCC 29212 [3]): >5 mg/mL | MMC (P. aeruginosa ATCC 27853 [4]): 2.5 mg/mL | MMC (S. aureus ATCC 25923 [5]): 5 mg/mL | MICMA (C. albicans ATCC 10231 [6]): 1.25 mg/mL | MICMA (E. coli ATCC 25922): 2.5 mg/mL | MICMA (E. faecalis ATCC 29212 [7]): 2.5 mg/mL | MICMA (P. aeruginosa ATCC 27853 [8]): 1.25 mg/mL | MICMA (S. aureus ATCC 25923 [9]): 2.5 mg/mL | Cytotoxic effect (in words) [10]: did not exert any inhibitory effect | Cytotoxic effect (in words) [11]: no inhibitory effect | Solubility ([12]; DMF): soluble | Solubility ([12]; DMSO): soluble | Solubility ([12]; acetone): soluble | Solubility ([12]; methanol): slightly soluble | Solubility ([12]; water): insoluble
